What was measured:
[1] = Adverse event observation in CD-1 PK study; assay type: in vivo; details: 10 mg/kg IP, CD-1 mice
Method: The dose volume was 10 mL/kg.

[2] = In vivo PK in CD-1 mice, plasma and brain by LC-MS/MS; details: for Mean concentration in brain: ± SD, n=3; for AUC(0-inf): AUCInf
Method: Initial in vivo PK studies to confirm oral bioavailability and brain exposure were conducted at Pharmaron (Beijing, China) in non‐fasted male CD‐1 mice (6–8 weeks of age; sourced from Vital River). […] The dose volume was 10 mL/kg.
Next, we evaluated brain and plasma PK of 10 mg/kg (1 hour pre, IP, n = 3). Experiments then were conducted to confirm and extend initial PK data and evaluate brain and plasma levels at doses of 1, 10, and 100 mg/kg after oral administration at 1, 3, and 8 hours post dose (n = 3 per dose per timepoint).
Serial blood was collected via the dorsal metatarsal vein into ethylenediaminetetraacetic acid‐K2 coated tubes and centrifuged at 4°C x 4000 g for 5 minutes to obtain plasma that was aliquoted and stored at −80°C until analysis. For terminal studies, blood was collected via cardiac puncture under isoflurane anesthesia. Whole brain was homogenized at a ratio of 1:3 with PBS (W:V, 1:3).
For sample analysis liquid chromatography tandem mass spectrometry (LC‐MS/MS) was conducted using an AB Sciex Triple Quad 5500 LC/MS/MS instrument. Briefly, the desired serial concentrations of working solutions were achieved by diluting stock solution of analyte with 50% acetonitrile in water solution. Ten µL of working solutions (0.5, 1, 2, 5, 10, 50, 100, 500, and 1000 ng/mL) were added to 10 µL of the blank CD1 mouse plasma/brain homogenate to achieve calibration standards of 0.5 to 1000 ng/mL (0.5, 1, 2, 5, 10, 50, 100, 500, and 1000 ng/mL) in a total volume of 20 µL. Five quality control (QC) samples at 1 ng/mL, 2 ng/mL, 5 ng/mL, 50 ng/mL, and 800 ng/mL for plasma/brain homogenate were prepared independently of those used for the calibration curves. These QC samples were prepared on the day of analysis in the same way as calibration standards. Twenty µL standards, 20 µL QC samples, and 20 µL unknown samples (10 µL plasma/brain homogenate with 10 µL blank solution) were added to 200 µL of acetonitrile containing internal standard (IS) mixture for precipitating protein, respectively. The samples were vortexed for 30 seconds followed by centrifugation at 4°C x 2600 g for 15 minutes. The supernatant was diluted at a ratio of 1:2 with H2O (V/V, 1:2), 5 µL of diluted supernatant was injected into the LC‐MS/MS system for quantitative analysis. The lower limit of quantification (LLOQ) was 0.5 ng/mL for plasma and 1 ng/mL for brain. PK parameters were estimated by non‐compartmental model analysis using WinNonlin 8.3.

[3] = male, CD-1, mouse, brain, oral, 10 mg/kg
[4] = male, CD-1, mouse, brain, oral, 100 mg/kg
[5] = male, CD-1, mouse, brain, po, 10 mg/kg, 10 mg/kg PO
[6] = male, CD-1, mouse, brain, po, 100 mg/kg, 100 mg/kg PO
[7] = male, CD-1, mouse, plasma, ip, 10 mg/kg, 10 mg/kg IP, sampling 0.5, 1, 3, 5 h
[8] = male, CD-1, mouse, plasma, po, 1 mg/kg, 1 mg/kg PO
[9] = male, CD-1, mouse, plasma, po, 10 mg/kg, 10 mg/kg PO, sampling 0.5, 1, 3, 5 h
[10] = male, CD-1, mouse, plasma, po, 10 mg/kg, 10 mg/kg PO, sampling 1, 3, 8 h
[11] = male, CD-1, mouse, plasma, po, 100 mg/kg, 100 mg/kg PO
[12] = plasma, 10 mg/kg IP, sampling 0.5, 1, 3, 5 h
[13] = plasma, 10 mg/kg PO, sampling 0.5, 1, 3, 5 h
[14] = plasma, 10 mg/kg PO, sampling 1, 3, 8 h

For `CC(C)NC(=O)N1CC[C@H](NC2=Nc3cc(F)ccc3N(CC(F)F)c3ccc(Cl)cc32)C1` [NVS‐PAK1‐1, (S)‐3‐([2‐chloro‐5‐(2,2‐difluoroethyl)‐8‐fluoro‐5H‐dibenzo[b,e][1,4]diazepin‐11‐yl]amino)‐N‐isopropylpyrrolidine‐1‐carboxamide], the adverse events [1] was “No adverse events were observed”, the “Mean concentration in brain” value ([2]; 1 mg/kg PO, 1 h post dose) was “BLOQ” and the “Mean concentration in brain” value ([2]; 1 mg/kg PO, 3 h post dose) was “BLOQ”. For the same compound, the “Mean concentration in brain” value ([2]; 1 mg/kg PO, 8 h post dose) was “BLOQ”, the concentration in brain ([2]; 1 mg/kg PO, at 1, 3 and 8 hours post dose) was less than 1 ng/mL and the “Mean concentration in brain” value ([2]; 10 mg/kg PO, 8 h post dose) was “BLOQ”. The “Mean concentration in brain” value ([2]; 100 mg/kg PO, 8 h post dose) was “detectable”, the AUC_%Extrap_obs ([2]; brain, 10 mg/kg PO) was 15.3% and the AUClast/D ([2]; brain, 10 mg/kg PO) was 5.74 h·ng/mL per mg/kg. The AUC_%Extrap_obs ([2]; brain, 100 mg/kg PO) was 1.34%, the AUClast/D ([2]; brain, 100 mg/kg PO) was 13.8 h·ng/mL per mg/kg and the concentration at 1 h ([2]; male, CD-1, mouse, brain, intraperitoneal, 10 mg/kg) was 112 ± 14 ng/g. The concentration at 1 h [2, 3] was 33.2 ± 13 ng/g, the concentration at 3 h [2, 3] was 7.62 ± 1.16 ng/g and the concentration at 1 h [2, 4] was 759 ± 379 ng/g. For the same compound, the concentration at 3 h [2, 4] was 61.6 ± 3.5 ng/g, the concentration at 8 h [2, 4] was 14.3 ± 5.4 ng/g and the AUC(0-inf) [2, 5] was 67.8 ng·h/mL. The AUC(0-t) ([2]; male, CD-1, mouse, brain, po, 10 mg/kg, AUClast, 10 mg/kg PO) was 57.4 ng·h/mL, the Cmax [2, 5] was 33.2 ng/mL and the MRT inf ([2]; male, CD-1, mouse, brain, po, 10 mg/kg, MRTInf_obs, 10 mg/kg PO) was 1.74 h. The half-life ([2]; male, CD-1, mouse, brain, po, 10 mg/kg, T1/2, brain, 10 mg/kg PO) was 0.942 h, the Tmax [2, 5] was 1 h and the AUC(0-inf) [2, 6] was 1400 ng·h/mL. It also gave an AUC(0-t) ([2]; male, CD-1, mouse, brain, po, 100 mg/kg, AUClast, 100 mg/kg PO) of 1380 ng·h/mL, a Cmax [2, 6] of 759 ng/mL and a half-life ([2]; male, CD-1, mouse, brain, po, 100 mg/kg, T1/2, brain, 100 mg/kg PO) of 1.23 h. It also gave a Tmax [2, 6] of 1 h, a Kp at 1 h ([2]; male, CD-1, mouse, brain/plasma, ip, 10 mg/kg) of 0.25 and a Kp ([2]; male, CD-1, mouse, brain/plasma, po, 10 mg/kg) of 0.21. It also gave a Kp ([2]; male, CD-1, mouse, brain/plasma, po, 100 mg/kg) of 0.302, an AUC(0-t) ([2]; male, CD-1, mouse, in vivo, po, 1 mg/kg) of 27.2 ng·h/mL and an MRT inf ([2]; male, CD-1, mouse, in vivo, po, 100 mg/kg) of 1.56 h. It also gave a concentration at 1 h ([2]; male, CD-1, mouse, plasma, intraperitoneal, 10 mg/kg) of 448 ± 65 ng/mL, an AUC(0-inf) [2, 7] of 1170 ng·h/mL and an AUC(0-t) ([2]; male, CD-1, mouse, plasma, ip, 10 mg/kg, AUClast, 10 mg/kg IP, sampling 0.5, 1, 3, 5 h) of 1150 ng·h/mL. It also gave a Cmax [2, 7] of 878 ng/mL, an MRT inf ([2]; male, CD-1, mouse, plasma, ip, 10 mg/kg, MRTInf_obs, 10 mg/kg IP, sampling 0.5, 1, 3, 5 h) of 1.1 h and a half-life ([2]; male, CD-1, mouse, plasma, ip, 10 mg/kg, T1/2, plasma, 10 mg/kg IP, sampling 0.5, 1, 3, 5 h) of 0.814 h. It also gave a Tmax [2, 7] of 0.5 h, an AUC(0-inf) [2, 8] of 31.6 ng·h/mL and a Cmax [2, 8] of 8.1 ng/mL. The MRT inf ([2]; male, CD-1, mouse, plasma, po, 1 mg/kg, MRTInf_obs, 1 mg/kg PO) was 3.92 h, the half-life ([2]; male, CD-1, mouse, plasma, po, 1 mg/kg, T1/2, plasma, 1 mg/kg PO) was 2.62 h and the Tmax [2, 8] was 1 h. It also gave an AUC(0-inf) [2, 9] of 252 ng·h/mL, an AUC(0-inf) [2, 10] of 280 ng·h/mL and an AUC(0-t) ([2]; male, CD-1, mouse, plasma, po, 10 mg/kg, AUClast, 10 mg/kg PO, sampling 0.5, 1, 3, 5 h) of 223 ng·h/mL. It also gave an AUC(0-t) ([2]; male, CD-1, mouse, plasma, po, 10 mg/kg, AUClast, 10 mg/kg PO, sampling 1, 3, 8 h) of 274 ng·h/mL, a Cmax [2, 9] of 130 ng/mL and a Cmax [2, 10] of 112 ng/mL. The MRT inf ([2]; male, CD-1, mouse, plasma, po, 10 mg/kg, MRTInf_obs, 10 mg/kg PO, sampling 0.5, 1, 3, 5 h) was 2.19 h, the MRT inf ([2]; male, CD-1, mouse, plasma, po, 10 mg/kg, MRTInf_obs, 10 mg/kg PO, sampling 1, 3, 8 h) was 2.1 h and the half-life ([2]; male, CD-1, mouse, plasma, po, 10 mg/kg, T1/2, plasma, 10 mg/kg PO, sampling 0.5, 1, 3, 5 h) was 1.56 h. For the same compound, the half-life ([2]; male, CD-1, mouse, plasma, po, 10 mg/kg, T1/2, plasma, 10 mg/kg PO, sampling 1, 3, 8 h) was 1.4 h, the Tmax [2, 9] was 0.5 h and the Tmax [2, 10] was 1 h. It also gave an AUC(0-inf) [2, 11] of 4720 ng·h/mL, an AUC(0-t) ([2]; male, CD-1, mouse, plasma, po, 100 mg/kg, AUClast, 100 mg/kg PO) of 4570 ng·h/mL and a Cmax [2, 11] of 2330 ng/mL. The MRT inf ([2]; male, CD-1, mouse, plasma, po, 100 mg/kg, MRTInf_obs, 100 mg/kg PO) was 1.91 h, the half-life ([2]; male, CD-1, mouse, plasma, po, 100 mg/kg, T1/2, plasma, 100 mg/kg PO) was 1.5 h and the Tmax [2, 11] was 1 h. For the same compound, the AUC_%Extrap_obs ([2]; plasma, 1 mg/kg PO) was 14.0%, the AUClast/D ([2]; plasma, 1 mg/kg PO) was 27.2 h·ng/mL per mg/kg and the AUC_%Extrap_obs [2, 12] was 1.62%. It also gave an AUClast/D [2, 12] of 115 h·ng/mL per mg/kg, an AUC_%Extrap_obs [2, 13] of 11.3% and an AUClast/D [2, 13] of 22.3 h·ng/mL per mg/kg. It also gave an AUC_%Extrap_obs [2, 14] of 2.29%, an AUClast/D [2, 14] of 27.4 h·ng/mL per mg/kg and an AUC_%Extrap_obs ([2]; plasma, 100 mg/kg PO) of 3.08%. For the same compound, the AUClast/D ([2]; plasma, 100 mg/kg PO) was 45.7 h·ng/mL per mg/kg.
